US8802865B2 (Janssen Pharmaceutica, NV, priority 2006, dated 2014)

How the values were obtained:
[1] = system: ventral prostate; test: Ventral Prostate Weight in vivo Assay (inhibition of testosterone-enhanced tissue weight); design: key: “active” in the Table below if the non weight adjusted prostate weight was ≦40 mg or the % Inhibition prostate weight, body weight adjusted was ≧40% @ 2 mg/day dosage; listed herein as “inactive” as they did not meet the specified criteria defined above; conditions: castrated male Sprague Dawley rats, test compound usually orally once daily with testosterone propionate s.c.; ventral prostate wet weight; criteria at 2 mg/day dosage
Procedure: (§1) Ventral Prostate and Levator Ani Weight in vivo Assay
(§2) Immature (approximately 50 g) castrated male Sprague Dawley rats (Charles River) were treated once daily for five days with test compound (usually given orally at 40 mg/kg in a volume of 0.3 mL, in 30% cyclodextrin or 0.5% methylcellulose vehicle) and with testosterone propionate (given subcutaneously by injection at the nape of the neck at 2 mg/kg, in a volume of 0.1 mL in sesame oil). On the sixth day, the rats were euthanized by asphyxiation in carbon dioxide. Ventral prostates and levator ani were removed and their wet weights determined. Test compound activity was determined as the percent inhibition of testosterone-enhanced tissue weights, with a vehicle-treated control group set to zero percent and a testosterone alone-treated control group set to 100%.
(§3) Mature (150- to 200-g) castrated male Sprague Dawley rats (Charles River) are similarly tested according to the procedure described above. The rats were dosed for two weeks, with 0.4 mg/kg testosterone propionate used as the positive control.
(§4) Representative compounds of the present invention were tested according to the procedure described above, with results as listed in Table 3 below. For effect on prostate—i.e. an antagonist—a test compound is listed as “active” in the Table below if the non weight adjusted prostate weight was ≦40 mg or the % Inhibition prostate weight, body weight adjusted was ≧40% @ 2 mg/day dosage. For effect on levator ani—i.e. an agonist—a test compound is listed as “active” in the Table below if the non weight adjusted levator ani weight was ≧40 mg or the % Stimulation levator ani weight, body weight adjusted was ≧40% at 2 mg/day dosage.

[2] = system: levator ani; test: Levator Ani Weight in vivo Assay (stimulation of levator ani weight); design: key: “active” in the Table below if the non weight adjusted prostate weight was ≦40 mg or the % Inhibition prostate weight, body weight adjusted was ≧40% @ 2 mg/day dosage; listed herein as “inactive” as they did not meet the specified criteria defined above; conditions: castrated male Sprague Dawley rats, test compound usually orally once daily with testosterone propionate s.c.; levator ani wet weight; criteria at 2 mg/day dosage
Procedure: as §1, §2, §3, §4

Which results are given for `C=CCC(O)(c1nc2cc(Cl)c(Cl)cc2[nH]1)C(F)(F)F` (single isomer, unassigned; (+)) [Compound 23, (+)-Enantiomer of 2-(5,6-Dichloro-1H-benzoimidazol-2-yl)-1,1,1-trifluoro-pent-4-en-2-ol]?
Prostate antagonist [1]: active; L.A. agonist [2]: inactive

Which Prostate antagonist [1] does the source give for `C#CCC(O)(c1nc2cc(Cl)c(Cl)cc2n1C)C(F)(F)F` (single isomer, unassigned; (+)) [Compound 36, (+)-Enantiomer of 2-(5,6-Dichloro-1-methyl-1H-benzoimidazol-2-yl)-1,1,1-trifluoro-pent-4-yn-2-ol] here?
The Prostate antagonist was “inactive”.

What about the L.A. agonist [2] of the same compound?
The L.A. agonist was “inactive”.

What does the source list for `C=CCC(O)(c1nc2cc(Cl)c(Cl)cc2[nH]1)C(F)(F)F` (single isomer, unassigned; (-)) [Compound 24, (−)-Enantiomer of 2-(5,6-Dichloro-1H-benzoimidazol-2-yl)-1,1,1-trifluoro-pent-4-en-2-ol]?
Prostate antagonist [1]: active; L.A. agonist [2]: inactive

`C=C=CC(O)(c1nc2cc(Cl)c(Cl)cc2[nH]1)C(F)(F)F` (single isomer, unassigned; (-)) [Compound 32, (−)-Enantiomer of 2-(5,6-Dichloro-1H-benzoimidazol-2-yl)-1,1,1-trifluoro-penta-3,4-dien-2-ol] was tested. Which Prostate antagonist [1] did it give?
Its Prostate antagonist is “active”.

What about the L.A. agonist [2] of the same compound?
The L.A. agonist was “inactive”.

`C=CC(O)(c1nc2cc(Cl)c(Cl)cc2[nH]1)C(F)(F)F` (single isomer, unassigned; (-)) [Compound 44, (−)-2-(5,6-dichloro-1H-benzoimidazol-2-yl)-1,1,1-trifluoro-but-3-en-2-ol] was tested. Which Prostate antagonist [1] did it give?
The Prostate antagonist was “inactive”.

And the L.A. agonist [2]?
The L.A. agonist was “inactive”.

`C=C=C(C)C(O)(c1nc2cc(Cl)c(Cl)cc2[nH]1)C(F)(F)F` (stereo not drawn) [Compound 6, 2-(5,6-Dichloro-1H-benzoimidazol-2-yl)-1,1,1-trifluoro-3-methyl-pent-3,4-dien-2-ol] was tested. Which Prostate antagonist [1] did it give?
Its Prostate antagonist is “active”.

What about the L.A. agonist [2] of the same compound?
Its L.A. agonist is “inactive”.

Which Prostate antagonist [1] does the source give for `CC#CC(O)(c1nc2cc(Cl)c(Cl)cc2[nH]1)C(F)(F)F` (stereo not drawn) [Compound 8, 2-(5,6-Dichloro-1H-benzoimidazol-2-yl)-1,1,1-trifluoro-pent-3-yn-2-ol] here?
Its Prostate antagonist is “active”.

What about the L.A. agonist [2] of the same compound?
Its L.A. agonist is “inactive”.

How did the Prostate antagonist [1] turn out when `C=C(C)C(O)(c1nc2cc(Cl)c(Cl)cc2[nH]1)C(F)(F)F` (stereo not drawn) [Compound 9, 2-(5,6-Dichloro-1H-benzoimidazol-2-yl)-1,1,1-trifluoro-3-methyl-but-3-en-2-ol] was run?
The Prostate antagonist was “active”.

And the L.A. agonist [2]?
The L.A. agonist was “inactive”.

With `OC(c1ccccc1)(c1nc2cc(Cl)c(Cl)cc2[nH]1)C(F)(F)F` (stereo not drawn) [Compound 10, 1-(5,6-Dichloro-1H-benzoimidazol-2-yl)-2,2,2-trifluoro-1-phenyl-ethanol] as the compound, how does the Prostate antagonist [1] read?
Its Prostate antagonist is “active”.

And the L.A. agonist [2]?
Its L.A. agonist is “inactive”.

Which results are given for `C=C(C)CC(O)(c1nc2cc(Cl)c(Cl)cc2[nH]1)C(F)(F)F` (stereo not drawn) [Compound 13, 2-(5,6-Dichloro-1H-benzoimidazol-2-yl)-1,1,1-trifluoro-4-methyl-pent-4-en-2-ol]?
Prostate antagonist [1]: active; L.A. agonist [2]: inactive

What does the source list for `CC(C)=CC(O)(c1nc2cc(Cl)c(Cl)cc2[nH]1)C(F)(F)F` (stereo not drawn) [Compound 14, 2-(5,6-Dichloro-1H-benzoimidazol-2-yl)-1,1,1-trifluoro-4-methyl-pent-3-en-2-ol]?
Prostate antagonist [1]: active; L.A. agonist [2]: inactive

How did the Prostate antagonist [1] turn out when `C/C=C/C(O)(c1nc2cc(Cl)c(Cl)cc2[nH]1)C(F)(F)F` (stereo not drawn) [Compound 16, 2-(5,6-Dichloro-1H-benzoimidazol-2-yl)-1,1,1-trifluoro-trans-pent-3-en-2-ol] was run?
The Prostate antagonist was “active”.

What about the L.A. agonist [2] of the same compound?
The L.A. agonist was “inactive”.

With `OCC#CC(O)(c1nc2cc(Cl)c(Cl)cc2[nH]1)C(F)(F)F` (stereo not drawn) [Compound 17, 4-(5,6-Dichloro-1H-benzoimidazol-2-yl)-5,5,5-trifluoro-pent-2-yne-1,4-diol] as the compound, how does the Prostate antagonist [1] read?
Its Prostate antagonist is “active”.

What about the L.A. agonist [2] of the same compound?
The L.A. agonist was “inactive”.

Which Prostate antagonist [1] does the source give for `C=CC(C)(C)C(O)(c1nc2cc(Cl)c(Cl)cc2[nH]1)C(F)(F)F` (stereo not drawn) [Compound 25, 2-(5,6-Dichloro-1H-benzoimidazol-2-yl)-1,1,1-trifluoro-3,3-dimethyl-pent-4-en-2-ol] here?
Its Prostate antagonist is “active”.

What about the L.A. agonist [2] of the same compound?
The L.A. agonist was “inactive”.

How did the Prostate antagonist [1] turn out when `C=CC(C)C(O)(c1nc2cc(Cl)c(Cl)cc2[nH]1)C(F)(F)F` (stereo not drawn) [Compound 26] was run?
Its Prostate antagonist is “active”.

What about the L.A. agonist [2] of the same compound?
The L.A. agonist was “inactive”.

With `C#CCC(O)(c1nc2cc(Cl)c(Cl)cc2n1C)C(F)(F)F` (stereo not drawn) [Compound 35, 2-(5,6-Dichloro-1-methyl-1H-benzoimidazol-2-yl)-1,1,1-trifluoro-pent-4-yn-2-ol] as the compound, how does the Prostate antagonist [1] read?
The Prostate antagonist was “inactive”.

For `C=CCCC(O)(c1nc2cc(Cl)c(Cl)cc2[nH]1)C(F)(F)F` (stereo not drawn) [Compound 40, 2-(5,6-Dichloro-1H-benzoimidazol-2-yl)-1,1,1-trifluoro-hex-5-en-2-ol], which Prostate antagonist [1] is on record?
Its Prostate antagonist is “active”.

How did the Prostate antagonist [1] turn out when `FC(F)(F)C1(c2nc3cc(Cl)c(Cl)cc3[nH]2)OCCO1` [Compound 47, 5,6-Dichloro-2-(2-trifluoromethyl-[1,3]dioxolan-2-yl)-1H-benzimidazole] was run?
Its Prostate antagonist is “active”.

For `FC(F)(F)C1(c2nc3cc(Cl)c(Cl)cc3[nH]2)OCC(CCl)O1` (stereo not drawn) [Compound 50, 5,6-Dichloro-2-(4-chloromethyl-2-trifluoromethyl-[1,3]dioxolan-2-yl)-1H-benzimidazole], which Prostate antagonist [1] is on record?
Its Prostate antagonist is “active”.

Which Prostate antagonist [1] does the source give for `Cn1c(C2(C(F)(F)F)OCCO2)nc2cc(Cl)c(Cl)cc21` [Compound 52, 5,6-Dichloro-1-methyl-2-(2-trifluoromethyl-[1,3]dioxolan-2-yl)-1H-benzoimidazole] here?
The Prostate antagonist was “inactive”.

With `N#CCn1c(C2(C(F)(F)F)OCCO2)nc2cc(Cl)c(Cl)cc21` [Compound 53, [5,6-Dichloro-2-(2-trifluoromethyl-[1,3]dioxolan-2-yl)-benzoimidazol-1-yl]-acetonitrile] as the compound, how does the Prostate antagonist [1] read?
Its Prostate antagonist is “active”.

How did the Prostate antagonist [1] turn out when `C#CCn1c(C2(C(F)(F)F)OCCO2)nc2cc(Cl)c(Cl)cc21` [Compound 54, 5,6-Dichloro-1-prop-2-ynyl-2-(2-trifluoromethyl-[1,3]dioxolan-2-yl)-1H-benzoimidazole] was run?
Its Prostate antagonist is “active”.

With `C=CCn1c(C2(C(F)(F)F)OCCO2)nc2cc(Cl)c(Cl)cc21` [Compound 55, 1-Allyl-5,6-dichloro-2-(2-trifluoromethyl-[1,3]dioxolan-2-yl)-1H-benzoimidazole] as the compound, how does the Prostate antagonist [1] read?
The Prostate antagonist was “active”.

Which Prostate antagonist [1] does the source give for `CCn1c(C2(C(F)(F)F)OCCO2)nc2cc(Cl)c(Cl)cc21` [Compound 56, 5,6-Dichloro-1-ethyl-2-(2-trifluoromethyl-[1,3]dioxolan-2-yl)-1H-benzoimidazole] here?
Its Prostate antagonist is “active”.

How did the Prostate antagonist [1] turn out when `COC(=O)Cn1c(C2(C(F)(F)F)OCCO2)nc2cc(Cl)c(Cl)cc21` [Compound 57, [5,6-Dichloro-2-(2-trifluoromethyl-[1,3]dioxolan-2-yl)-benzoimidazol-1-yl]-acetic acid methyl ester] was run?
The Prostate antagonist was “inactive”.

Which Prostate antagonist [1] does the source give for `FC(F)(F)C1(c2nc3cc(Cl)c(Cl)cc3[nH]2)NCCN1` [Compound 60, 5,6-Dichloro-2-(2-trifluoromethyl-imidazolidin-2-yl)-1H-benzimidazole] here?
Its Prostate antagonist is “active”.

How did the Prostate antagonist [1] turn out when `C=C=C(CC)C(O)(c1nc2cc(Cl)c(Cl)cc2[nH]1)C(F)(F)F` (stereo not drawn) [Compound 62, 2-(5,6-Dichloro-1H-benzoimidazol-2-yl)-3-ethyl-1,1,1-trifluoro-penta-3,4-dien-2-ol] was run?
The Prostate antagonist was “active”.
